Source: US20180271869A1, “TREATMENT OF ANXIETY DISORDERS AND AUTISM SPECTRUM DISORDERS” (Rugen Holdings (Cayman) Limited, priority 2014, published 2018)
pIC50: −log10 of the molar value. Entries after “also recorded” stand apart in the source; their conditions may differ.

Assays:
[1] = target: T1, human NR1/NR2A (Homo sapiens, UniProt Q12879); conditions: from L. Mony et al., Br. J. Pharmacol. 2009; read-out: hNR2A IC50; cited from earlier work
T1 construct: expressed in transfected cells

[2] = system: Shank3 knock-out mice; assay: Novelty Phobia Test in Shank3 knock-out mice; type: in vivo, mouse; conditions: for novelty phobia (number of touch bouts): vs vehicle, p<0.05
Experimental: (§1) Animals. Shank3 knockout mice and Sapap3 knockout mice were purchased from Duke University. The animals were raised in a SPF environment according to AALAC guidelines. The breeding conditions and genotyping method were the same as described in J. M. Welch et al., Nature 2007; 448(7156):894-900, and in J. Peca et al., Nature 2011;472(7344):437-442. Homozygous knockout mice of 4 to 8 weeks of age were used in behavioral assays.
The test compounds were dissolved in a small volume of DMSO and diluted saline and administered intraperitoneally (i.p.) to 4 to 8 week old mice. About 30-60 minutes after dosing, the mice were subjected to a behavioral test as described below.
(§2) The behavioral testing apparatus was a rectangular black Plexiglas box, with no top or bottom (50 cm long, 26 cm wide and 15 cm tall). The chambers of the testing apparatus were cleaned and fresh paper chip bedding was added between tests. Behavioral tests were conducted between 10:00 am and 1:00 pm in dim light. Mice were brought to the experiment room in their home cages and administered intraperitoneally with drugs or vehicle in a volume of 10 ml/kg. About 30 to 60 min after drug administration, the mice were placed into the chamber and allowed to free play for 10 min. After this habituation period, a novel object (e.g., a toy ball of 3 cm in diameter with spikes) was introduced to the center of the chamber for 5 min. For the entire 15 min that the mouse spent in the chamber, video was recorded and analyzed with AnyMaze software (purchased from Stoelting Co.). The total distance traveled during the entire 15 min and the bouts that the mice touched the novel object during the last 5 min were measured. Statistical significance between two groups was determined by t test. In all statistical measures, the criterion for significance was set at p<0.05.

[3] = target: T2, human NR1/NR2A (Homo sapiens, UniProt Q05586+Q12879); assay: NR2A antagonist activity, Fluo-4 calcium influx assay in HEK293 cells; type: cell-based; conditions: glutamate 100 μM and glycine 50 μM, Fluo-4 fluorescence, read-out: hNR2A IC50
T2 construct: expressed in transfected cells
Description: HEK293 cell lines stably expressing cloned human NR1/NR2B and NR1/NR2A, respectively, were established according to standard previously described methods (Hansen et al., Comb. Chem High Throughput Screen. 11:304, 2008). Activation of the NR2A or NR2B subtype of NMDA receptor with glutamate as an agonist and glycine co-agonist on these cells results in calcium influx, which can be monitored with fluorescent indicator Fluo-4. A cell based assay has been implemented to evaluate the effect of a compound on NR2A and NR2B receptors by measuring the fluorescent changes (Hansen et al., Comb. Chem High Throughput Screen. 11:304, 2008).
HEK293 cells stably expressing NR2A or NR2B receptors were cultured at 37° C. in a humidified CO2 incubator in DMEM supplemented with 10% fetal bovine serum (FBS) (Hyclone), 10 μM MK801 (Sigma-Aldrich) and 50 μM AP-5 (Tocris). For experiments, the cells were seeded onto poly-D-lysine-coated 96-well black plates with clear bottom (Corning) at a density of ˜50,000 cells/well. After overnight culture, the growth medium was removed from the wells and the cells were incubated at 37° C. for 60 min in Hanks buffer containing 4 μM fluo-4-AM (Invitrogen) and 0.1% bovine serum albumin (BSA). After dye-loading, the cells were washed three times with Hanks buffer and incubated for 10 min at room temperature with various concentrations of test compounds prepared in Hanks buffer with 0.1% BSA. The cell plates were placed onto FDSS μCell fluorescence reader (Hamamatsu). After 20 sec reading of background fluorescence, agonist glutamate at final 100 μM and co-agonist glycine at final 50 μM were added to the cells to activate the receptor, and the resulting fluorescence changes were recorded and quantified. Based on the changes in fluorescence intensity, the pharmacological effect of test compounds were analyzed and the IC50 values derived from a non-linear least squares fitting of the concentration-dependent response to a standard logistic equation using Prism (Graphpad, Inc):
Amplitude=Max Amplitude/(1+(IC50/[antagonist])°).

[4] = system: Sapap3 knock-out mice; assay: Novelty Phobia Test in Sapap3 knock-out mice; type: in vivo, mouse; conditions: for novelty phobia (number of touch bouts), dose dependence: single i.p. administration
Experimental: as §1
The test compounds were dissolved in a small volume of DMSO and diluted saline and administered intraperitoneally (i.p.) to 4 to 8 week old mice. […]
as §2, with “About 30 to 60 min after drug administration, the mice were placed into the chamber and allowed to free play for 10 min.” left out

[5] = system: wild type mice; assay: Marble Burying Test; type: in vivo, mouse; conditions: for number of marbles buried: vs vehicle, p<0.001
Experimental: The Marble Burying Test was conducted as previously described by C. L. Broekkamp et al., Eur. J. Pharmacol. 1986, 126, 223-229. Mice exposed to novel object (marbles) will bury them in the sawdust floor covering. Anxiolytics decrease the number of marbles buried at non-sedative doses. Mice were individually placed in transparent plastic cages (33×21×18 cm) with 5 cm of sawdust on the floor 25 marbles grouped in the center of the cage. The cage was covered with an inverted plastic cage. Each test cage, together with the marbles, was impregnated with mouse odor before-hand by leaving 10 mice in the cage for 15 minutes. These mice then played no further role in the experiment. The number of marbles covered by sawdust (⅔ or more) was counted at the end of a 30-minute test. Twelve mice were studied per group. The test was performed blind (test substances versus vehicle). Clobazam (8 mg/kg i.p.), administered 40 minutes before the test, was used as reference substance. Data with the test substances were analyzed by comparing treated groups with vehicle control using Kruskall-Wallis test followed by Mann-Whitney U tests. Data with the reference substance were analyzed using Mann-Whitney U tests.

[6] = target: T3, human NR1/NR2B (Homo sapiens, UniProt Q05586+Q13224); assay: NR2B antagonist activity, Fluo-4 calcium influx assay in HEK293 cells; type: cell-based; conditions: glutamate 100 μM and glycine 50 μM, Fluo-4 fluorescence, read-out: hNR2B IC50
T3 construct: expressed in transfected cells
Experimental: HEK293 cell lines stably expressing cloned human NR1/NR2B and NR1/NR2A, respectively, were established according to standard previously described methods (Hansen et al., Comb. Chem High Throughput Screen. 11:304, 2008). Activation of the NR2A or NR2B subtype of NMDA receptor with glutamate as an agonist and glycine co-agonist on these cells results in calcium influx, which can be monitored with fluorescent indicator Fluo-4.
For experiments, the cells were seeded onto poly-D-lysine-coated 96-well black plates with clear bottom (Corning) at a density of ˜50,000 cells/well. After overnight culture, the growth medium was removed from the wells and the cells were incubated at 37° C. for 60 min in Hanks buffer containing 4 μM fluo-4-AM (Invitrogen) and 0.1% bovine serum albumin (BSA). After dye-loading, the cells were washed three times with Hanks buffer and incubated for 10 min at room temperature with various concentrations of test compounds prepared in Hanks buffer with 0.1% BSA. The cell plates were placed onto FDSS μCell fluorescence reader (Hamamatsu). After 20 sec reading of background fluorescence, agonist glutamate at final 100 μM and co-agonist glycine at final 50 μM were added to the cells to activate the receptor, and the resulting fluorescence changes were recorded and quantified.

[7] = system: wild-type mice; assay: Elevated Plus Maze; type: in vivo, mouse; conditions: for time spent in the open arms: vs vehicle
Description: The Elevated Plus Maze, which detects anxiolytic activity, follows that described by S. L. Handley and S. Mithani Naunyn. Schmied. Arch. Pharmacol. 1984, 327, 1-5. Rodents avoid open spaces (the open arms of an elevated plus-maze). Anxiolytics increase exploratory activity in the open arms, as indicated by increased time spent on the open arms and/or by increased % open-arm entries. The maze consists of 4 arms of equal length and width (14×5 cm) arranged in the form of a plus sign (+). Two opposite arms are enclosed by 12 cm high walls (closed arms). The 2 other arms have no walls (open arms). The maze is raised approximately 60 cm above the floor. A mouse was placed in the center of the plus-maze and left to explore for 5 minutes. The number of entries into the open and closed arms and the time spent on the open arms were recorded. The percentage of open arm entries (open arm entries/total arm entries×100) was calculated. Ten mice were studied per group. The test was performed blind (test substances versus vehicle). Data with the test substances were analyzed by comparing treated groups (7 groups except for the reference substance) with vehicle control using one-way ANOVA followed by post-hoc Dunnett's tests. Data with the reference substance were analyzed using unpaired Student's t tests.

[8] = single dose subcutaneous, highest dose tested; Iijima et al. 2010; cited from earlier work
[9] = Mathur et al. 2008; cited from earlier work
[10] = 5 mg/kg i.p. once/day for 6 days, tested 30-60 min after last dose
[11] = each test dose, single i.p., vs vehicle
[12] = 8 mg/kg i.p. 30 minutes before testing

T2 sequence (Q12879 23-1464, other chains not shown): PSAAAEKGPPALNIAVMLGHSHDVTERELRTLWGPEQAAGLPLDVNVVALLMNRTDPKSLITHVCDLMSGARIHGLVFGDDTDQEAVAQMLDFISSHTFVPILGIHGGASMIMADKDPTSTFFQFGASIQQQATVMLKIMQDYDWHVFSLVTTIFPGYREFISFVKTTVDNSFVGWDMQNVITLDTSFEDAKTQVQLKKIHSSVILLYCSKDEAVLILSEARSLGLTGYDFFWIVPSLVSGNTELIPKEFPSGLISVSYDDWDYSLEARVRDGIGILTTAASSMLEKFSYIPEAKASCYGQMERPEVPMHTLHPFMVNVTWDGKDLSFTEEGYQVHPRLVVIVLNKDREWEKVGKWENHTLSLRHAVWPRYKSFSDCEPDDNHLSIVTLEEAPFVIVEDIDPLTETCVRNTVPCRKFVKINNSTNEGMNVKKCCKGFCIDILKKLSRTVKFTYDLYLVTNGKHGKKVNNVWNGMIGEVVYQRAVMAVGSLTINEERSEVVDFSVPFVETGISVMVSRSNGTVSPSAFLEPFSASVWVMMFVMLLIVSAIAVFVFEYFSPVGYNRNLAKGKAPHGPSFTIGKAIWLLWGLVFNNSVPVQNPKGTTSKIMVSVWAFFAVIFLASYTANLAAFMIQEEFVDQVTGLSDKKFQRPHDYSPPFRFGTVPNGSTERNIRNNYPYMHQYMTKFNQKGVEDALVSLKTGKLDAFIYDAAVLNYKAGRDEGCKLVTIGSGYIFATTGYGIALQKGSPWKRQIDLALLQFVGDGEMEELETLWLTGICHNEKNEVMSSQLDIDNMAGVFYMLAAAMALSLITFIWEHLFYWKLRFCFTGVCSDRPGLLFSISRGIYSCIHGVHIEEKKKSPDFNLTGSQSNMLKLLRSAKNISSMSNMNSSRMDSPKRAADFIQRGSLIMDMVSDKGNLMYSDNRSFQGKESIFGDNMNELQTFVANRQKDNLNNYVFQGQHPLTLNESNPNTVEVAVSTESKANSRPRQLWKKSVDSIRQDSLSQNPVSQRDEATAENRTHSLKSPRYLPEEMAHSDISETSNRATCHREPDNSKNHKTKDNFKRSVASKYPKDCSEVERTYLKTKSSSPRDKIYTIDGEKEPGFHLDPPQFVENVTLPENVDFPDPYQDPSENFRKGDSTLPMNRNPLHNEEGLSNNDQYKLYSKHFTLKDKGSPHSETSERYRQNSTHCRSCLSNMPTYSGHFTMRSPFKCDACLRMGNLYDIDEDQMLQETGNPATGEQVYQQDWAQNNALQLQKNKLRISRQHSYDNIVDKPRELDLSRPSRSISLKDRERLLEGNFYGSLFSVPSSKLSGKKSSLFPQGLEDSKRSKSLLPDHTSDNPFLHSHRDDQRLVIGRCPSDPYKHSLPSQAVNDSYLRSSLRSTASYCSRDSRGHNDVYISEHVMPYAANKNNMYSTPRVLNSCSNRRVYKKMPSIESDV
T3 sequence (Q13224 27-1484, other chains not shown): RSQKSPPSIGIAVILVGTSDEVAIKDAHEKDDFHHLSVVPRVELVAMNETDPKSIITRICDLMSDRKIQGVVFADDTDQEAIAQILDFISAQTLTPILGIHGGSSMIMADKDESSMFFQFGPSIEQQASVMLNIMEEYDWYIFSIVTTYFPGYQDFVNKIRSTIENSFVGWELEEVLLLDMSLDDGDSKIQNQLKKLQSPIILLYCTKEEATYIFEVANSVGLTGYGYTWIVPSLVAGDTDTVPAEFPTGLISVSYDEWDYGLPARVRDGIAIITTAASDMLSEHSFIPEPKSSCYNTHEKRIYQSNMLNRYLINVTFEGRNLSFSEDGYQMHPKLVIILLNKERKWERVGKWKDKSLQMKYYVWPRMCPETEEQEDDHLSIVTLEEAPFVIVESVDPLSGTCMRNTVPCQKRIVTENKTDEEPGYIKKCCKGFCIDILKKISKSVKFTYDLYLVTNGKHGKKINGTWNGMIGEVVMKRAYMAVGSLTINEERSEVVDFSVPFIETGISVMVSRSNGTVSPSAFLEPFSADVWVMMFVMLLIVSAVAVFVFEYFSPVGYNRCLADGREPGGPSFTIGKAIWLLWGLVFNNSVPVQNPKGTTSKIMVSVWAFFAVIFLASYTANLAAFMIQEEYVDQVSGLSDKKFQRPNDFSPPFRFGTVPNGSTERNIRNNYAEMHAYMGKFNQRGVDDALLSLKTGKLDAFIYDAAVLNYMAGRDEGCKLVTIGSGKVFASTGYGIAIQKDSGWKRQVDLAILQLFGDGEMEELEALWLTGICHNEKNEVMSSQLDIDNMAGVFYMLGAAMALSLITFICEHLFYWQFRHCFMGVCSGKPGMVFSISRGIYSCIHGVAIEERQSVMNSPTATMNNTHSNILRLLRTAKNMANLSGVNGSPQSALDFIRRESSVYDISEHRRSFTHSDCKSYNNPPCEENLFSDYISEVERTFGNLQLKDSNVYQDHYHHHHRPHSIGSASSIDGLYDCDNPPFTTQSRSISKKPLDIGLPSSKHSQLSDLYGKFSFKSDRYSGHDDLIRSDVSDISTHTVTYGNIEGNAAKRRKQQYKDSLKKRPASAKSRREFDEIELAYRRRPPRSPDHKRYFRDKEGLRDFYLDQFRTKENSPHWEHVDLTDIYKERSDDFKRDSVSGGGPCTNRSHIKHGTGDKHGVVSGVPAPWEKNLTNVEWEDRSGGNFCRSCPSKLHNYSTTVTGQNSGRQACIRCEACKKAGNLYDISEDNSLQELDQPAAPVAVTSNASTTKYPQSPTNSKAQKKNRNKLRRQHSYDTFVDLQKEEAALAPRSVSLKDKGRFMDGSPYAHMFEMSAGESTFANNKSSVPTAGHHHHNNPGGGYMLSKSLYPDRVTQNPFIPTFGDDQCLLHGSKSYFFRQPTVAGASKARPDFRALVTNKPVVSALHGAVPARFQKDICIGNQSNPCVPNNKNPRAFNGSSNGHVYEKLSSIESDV
T1 sequence (Q12879 23-1464, other chains not shown): as the sequence (Q12879 23-1464, other chains not shown) above

C[C@@H]([C@@H](O)c1ccc(O)cc1)N1CCC(O)(c2ccccc2)CC1 [Compound A, (+)-(1S,2S)-1-(4-hydroxyphenyl)-2-(4-hydroxy-4-phenylpiperidino)-1-propanol, reference compound]
pIC50 [1]: ≤ 5.00
novelty phobia (number of touch bouts) [2, 10]: significantly improved novelty phobia

Cc1ccc(COC(=O)N2CC[C@H](CNc3ncccn3)[C@H](F)C2)cc1 [Compound D, (−)-(3S,4R)-cis-4-methylbenzyl 3-fluoro-4-[(pyrimidin-2-ylamino)methyl]-piperidine-1-carboxylate]
pIC50 [3]: < 5.00
novelty phobia (number of touch bouts) ([4]; 1 mg/kg i.p. 20 minutes prior to testing): improved novelty phobia
number of marbles buried ([5]; 1 mg/kg i.p. 20 minutes before the test): significantly different from that of vehicle
number of marbles buried, dose dependence ([5]; single i.p. dose 20 minutes before 30-minute test session): dose-dependently reduced the number of marbles buried
pIC50 [6]: 7.96
time spent in the open arms ([7]; 3 and 10 mg/kg i.p. 20 minutes before the test, p<0.01/0.001): significantly different from that of vehicle
time spent in the open arms, dose dependence ([7]; single i.p. dose 20 minutes before the test): maximal efficacy approaching that of the benzodiazepine control compound clobazam; also recorded: dose-dependently increased the amount of time spent

FC(F)(F)c1ccc(C(F)(F)CN2CCC(Nc3ncnc4[nH]ncc34)CC2)cc1 [Compound B, N-(1-(2,2-difluoro-2-(4-trifluoromethyl)phenyl-ethyl)piperidin-4-yl)-1H-pyrazolo[3,4-d]pyrimidin-4-amine]
pIC50 [3]: < 5.00
novelty phobia (number of touch bouts) [4, 11]: significantly improved
novelty phobia (number of touch bouts), dose dependence [4]: dose-dependently improved novelty phobia
novelty phobia (number of touch bouts) [2, 10]: significantly improved novelty phobia
novelty phobia (number of touch bouts) ([2]; 1 and 5 mg/kg single i.p.): significantly improved novelty phobia
novelty phobia (number of touch bouts), dose dependence ([2]; single i.p. administration 30-60 min before testing): dose-dependently improved novelty phobia

C[C@@H](CN1CCC(Cc2ccccc2)CC1)[C@@H](O)c1ccc(O)cc1 [Ro25-6981]
effect in the marble burying test [8]: modest efficacy
activity in the elevated plus maze test [9]: inactive

Cc1ccc(COC(=O)N2CC[C@@H](CNc3ncccn3)[C@@H](F)C2)cc1 [(3R,4S)-4-methylbenzyl 3-fluoro-4-[(pyrimidin-2-ylamino)methyl]piperidine-1-carboxylate]
pIC50 [3]: < 5.00
pIC50 [6]: 7.74

CN1C(=O)CC(=O)N(c2ccccc2)c2cc(Cl)ccc21 [clobazam, reference compound]
number of marbles buried [5, 12]: significantly different from that of vehicle
time spent in the open arms [7, 12]: significantly different from that of vehicle

Cc1ccc(COC(=O)N2CC[C@H](CNc3ncccn3)[C@H](F)C2)cc1 (racemic) [Compound C, (±)-cis-4-methylbenzyl 3-fluoro-4-[(pyrimidin-2-ylamino)methyl]piperidine-1-carboxylate]
novelty phobia (number of touch bouts) [4, 11]: significantly improved
novelty phobia (number of touch bouts), dose dependence [4]: dose-dependently improved novelty phobia
